Laboratory results reported in patent US9303033B2, “Pyrazolopyrimidines and related heterocycles as CK2 inhibitors” (SENHWA BIOSCIENCES, INC., priority 2009, dated 2016).
Read-outs that look alike come from different tables or passages of the source.

Assays:
CK2 ααββ = CK2 ααββ (Homo sapiens (Human), UniProt P68400); test: CK2 assay (cell-free, 33P-ATP, phosphocellulose filter plate); assay type: biochemical
[1] = tested on: BxPC3 human pancreatic adenocarcinoma cells; test: Cell proliferation assay with Alamar Blue (AB), BxPC3; assay type: cell-based
Protocol: (§1) A representative cell-proliferation assay protocol using Alamar Blue dye (stored at 4° C., use 20 ul per well) is described hereafter.
(§2) a. Split and trypsinize cells.
(§3) b. Count cells using hemocytometer.
(§4) c. Plate 4,000-5,000 cells per well in 100 μl of medium and seed into a 96-well plate according to the following plate layout. Add cell culture medium only to wells B10 to B12.
(§5) d. Add 100 μl of 2× drug dilution to each well in a concentration shown in the plate layout above. […] Total volume is 200 μl/well.
(§6) e. Incubate four (4) days at 37° C., 5% CO2 in a humidified incubator.
(§7) f. Add […] Alamar Blue reagent to each well.
(§8) g. Incubate for four (4) hours at 37° C., 5% CO2 in a humidified incubator.
(§9) h. Record fluorescence at an excitation wavelength of 544 nm and emission wavelength of 590 nm using a microplate reader.
(§10) In the assays, cells are cultured with a test compound for approximately four days, the dye is then added to the cells and fluorescence of […] dye is detected after approximately four hours. Different types of cells can be utilized in the assays (e.g., HCT-116 human colorectal carcinoma cells, PC-3 human prostatic cancer cells, MDA-MB231 human breast cancer cells, K-562 human chronic myelogenous leukemia (CML) cells, MiaPaca human pancreatic carcinoma cells, MV-4 human acute myeloid leukemia cells, and BxPC3 human pancreatic adenocarcinoma cells).

MDAMB453 = test: Cell proliferation assay with Alamar Blue (AB), MDAMB453; assay type: cell-based
Protocol: as §1, §2, §3, §4, §5, §6, §7, §8, §9, §10

recombinant human PIM2 = recombinant human PIM2 (Homo sapiens (Human), UniProt Q9P1W9); test: PIM-2 assay (33P-ATP filter binding); assay type: biochemical; conditions: for PIM2: % inh […]: at […] compound
Sequence of recombinant human PIM2 (Q9P1W9 whole entry): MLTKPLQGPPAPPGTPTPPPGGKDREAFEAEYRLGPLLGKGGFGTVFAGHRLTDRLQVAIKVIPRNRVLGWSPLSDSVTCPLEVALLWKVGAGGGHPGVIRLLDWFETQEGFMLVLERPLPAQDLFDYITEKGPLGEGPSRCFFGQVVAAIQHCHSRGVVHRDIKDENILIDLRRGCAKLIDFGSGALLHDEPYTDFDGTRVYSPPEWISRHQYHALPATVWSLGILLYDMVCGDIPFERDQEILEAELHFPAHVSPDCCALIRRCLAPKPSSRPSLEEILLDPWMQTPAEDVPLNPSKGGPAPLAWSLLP
Protocol: Test compounds dissolved and diluted in DMSO (2 μl) were added to a reaction mixture comprising 10 μl of 5× Reaction Buffer (40 mM MOPS pH 7.0, 5 mM EDTA), 10 μl of recombinant human PIM2 solution (4 ng PIM-2 dissolved in dilution buffer (20 mM MOPS pH 7.0; EDTA 1 mM; 5% Glycerol; 0.01% Brij 35; 0.1%; 0.1% 2-mercaptoethanol; 1 mg/ml BSA)) and 8 ul of water.

[2] = Homo sapiens, BXPC-3, read-out: AB: BxPC3
[3] = Homo sapiens, MDA-MB-453, MDAMB453 cells, read-out: AB: MDAMB453
[4] = PIM2: IC50 (5 μM ATP), 5 μM ATP
[5] = MDAMB453 cells, read-out: AB: MDAMB453 IC50
[6] = read-out: PIM2: IC50 (5 μM ATP), 5 μM ATP

Sequence of CK2 ααββ (P68400 whole entry): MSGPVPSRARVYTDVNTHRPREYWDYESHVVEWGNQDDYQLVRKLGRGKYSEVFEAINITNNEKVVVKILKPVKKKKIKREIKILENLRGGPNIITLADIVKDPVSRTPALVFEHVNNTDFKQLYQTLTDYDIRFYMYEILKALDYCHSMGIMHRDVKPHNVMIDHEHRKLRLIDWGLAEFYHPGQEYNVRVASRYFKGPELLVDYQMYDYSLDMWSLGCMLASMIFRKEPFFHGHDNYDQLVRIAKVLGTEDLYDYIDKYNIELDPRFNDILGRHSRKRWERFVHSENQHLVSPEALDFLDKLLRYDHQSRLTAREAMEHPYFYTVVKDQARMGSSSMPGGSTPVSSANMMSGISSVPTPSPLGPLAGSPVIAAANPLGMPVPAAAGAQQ
Sequence of CK2 ααββ (P67870 whole entry partner): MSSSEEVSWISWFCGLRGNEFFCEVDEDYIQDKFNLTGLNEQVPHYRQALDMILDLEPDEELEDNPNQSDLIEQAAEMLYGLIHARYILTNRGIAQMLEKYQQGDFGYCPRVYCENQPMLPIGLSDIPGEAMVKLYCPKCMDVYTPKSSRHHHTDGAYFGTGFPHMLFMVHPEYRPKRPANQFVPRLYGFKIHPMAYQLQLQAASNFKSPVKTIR

Structure (SMILES) | IC50 (CK2 ααββ) [µM] | IC50 [1, 2] [µM] | IC50 (MDAMB453; [3]) [µM] | IC50 (recombinant human PIM2; [4]) [µM] | also measured
COC(=O)CN1CCC(Nc2cc(Nc3cccc(Cl)c3)nc3c(/C=C4\NC(=O)NC4=O)cnn23)CC1 [Example O5] | < 0.1 | 4.26 | 1.11 | 2.41 | –
O=C1NC(=O)/C(=C/c2cnn3c(NC4CC4)cc(-c4cccc(O)c4)nc23)N1 [Example S3] | < 0.01 | 10.6 | 0.33 | 0.614 | –
CC(C)(C)CC(=O)Nc1cc(NC2CC2)n2ncc(/C=C3\NC(=O)NC3=O)c2n1 [Example M2] | < 0.01 | 4.87 | 6.68 | 0.359 | –
O=C1NC(=O)/C(=C/c2cnn3c(Nc4cccc(C(=O)N5CCNCC5)c4)cc(Nc4cccc(Cl)c4)nc23)N1 [Example F7] | < 0.01 | 14 | 1.59 | 1.23 | –
CCCS(=O)(=O)Nc1cccc(-c2cc(NC3CC3)n3ncc(/C=C4\NC(=O)NC4=O)c3n2)c1 [Example T4] | < 0.1 | 2.74 | 1.71 | > 2.5 | –
O=C1NC(=O)/C(=C/c2cnn3c(NC4CC4)cc(-c4ccc(F)c(C(=O)N5CCOCC5)c4)nc23)N1 [Example F5] | < 0.01 | 1.81 | 0.948 | > 2.5 | –
CN1C(=O)NC(=Cc2cnn3c(NC4CC4)cc(Nc4ccccc4F)nc23)C1=O [Example F42] | < 0.1 | – | – | – | IC50 ([1]; read-out: AB: BxPC3 IC50): > 30 µM; IC50 (MDAMB453; [5]): 29.1 µM; PIM2: % inh […] (recombinant human PIM2): −17.549%
Cc1c(Nc2cccc(Cl)c2)nc2c(C=C3NC(=O)NC3=O)cnn2c1NC1CC1 [Example B46] | < 0.01 | – | – | – | IC50 ([1]; read-out: AB: BxPC3 IC50): > 30 µM; IC50 (MDAMB453; [5]): 24.2 µM; PIM2: % inh […] (recombinant human PIM2): 47.606%
O=C1NC(=O)/C(=C/c2cnn3c(NC4CC4)cc(Nc4cccc(F)c4)nc23)N1 [Example D1] | < 0.01 | 4.07 | 1.34 | 2.2 | –
O=C1NC(=O)/C(=C/c2cnn3c(NC4CC4)cc(Nc4cccc(Cl)c4)nc23)N1 [Example C1] | < 0.01 | 15 | 1.04 | > 2.5 | IC50 (recombinant human PIM2; read-out: PIM2: IC50): 1.3 µM
O=C1NC(=O)/C(=C/c2cnn3c(NC4CC4)cc(-c4cccc(OC(F)(F)F)c4)nc23)N1 [Example T3] | < 0.01 | 1.54 | 0.402 | 0.891 | –
O=C1NC(=O)/C(=C/c2cnn3c(NCCO)cc(Nc4cccc(Cl)c4)nc23)N1 [Example D6] | < 1 | 1.92 | 0.717 | 0.475 | –
O=C1NC(=O)/C(=C/c2cnn3c(NC4CCNCC4)cc(Nc4cccc(Cl)c4)nc23)N1 [Example K5] | < 0.1 | 11 | 1.08 | 2.45 | –
CS(=O)(=O)c1cccc(-c2cc(NC3CC3)n3ncc(/C=C4\NC(=O)NC4=O)c3n2)c1 [Example X3] | < 0.01 | 13.1 | 0.517 | > 2.5 | –
CN(C)CCNC(=O)c1cc(-c2cc(NC3CC3)n3ncc(/C=C4\NC(=O)NC4=O)c3n2)ccc1F [Example G5] | < 0.01 | 1.84 | 0.435 | > 2.5 | –
CC(C)(C)OC(=O)N1CCN(C(=O)c2cccc(Nc3cc(Nc4cccc(Cl)c4)nc4c(/C=C5\NC(=O)NC5=O)cnn34)c2)CC1 [Example E7] | < 0.01 | 3.01 | 0.364 | 2.02 | –

Structure (SMILES) | IC50 (CK2 ααββ) [µM] | IC50 [1, 2] [µM] | IC50 (MDAMB453; [3]) [µM] | IC50 (recombinant human PIM2; [4]) [µM] | also measured
CNc1cc(-c2cccc(CNC(C)=O)c2)nc2c(/C=C3\NC(=O)NC3=O)cnn12 [Example V4] | < 0.1 | > 30 | 12.4 | > 2.5 | –
O=C1NC(=O)/C(=C/c2cnn3c(NC4CC4)cc(Nc4ccc(Cl)c(C(F)(F)F)c4)nc23)N1 [Example H1] | < 0.01 | 3.21 | 0.991 | > 2.5 | –
O=C1NC(=O)/C(=C/c2cnn3c(NC4CCN(C(=O)C5CC5)CC4)cc(Nc4cccc(Cl)c4)nc23)N1 [Example L5] | < 0.01 | 2.4 | 0.993 | > 2.5 | –
CS(=O)(=O)Nc1cccc(-c2cc(NC3CC3)n3ncc(/C=C4\NC(=O)NC4=O)c3n2)c1 [Example C4] | < 0.1 | 3.28 | 1.49 | 2.4 | –
C[C@H](Nc1cc(NC2CC2)n2ncc(/C=C3\NC(=O)NC3=O)c2n1)C1CC1 [Example U2] | < 0.01 | > 30 | 12.8 | 0.766 | –
COC(=O)c1cccc(-c2cc(NC3CC3)n3ncc(/C=C4\NC(=O)NC4=O)c3n2)c1 [Example W3] | < 0.01 | 2.05 | 1.71 | > 2.5 | –
O=C1NC(=O)/C(=C/c2cnn3c(NCC(F)(F)F)cc(Nc4cccc(Cl)c4)nc23)N1 [Example O6] | < 0.01 | > 30 | 1.15 | > 2.5 | –
CC(=O)NC1CCC(Nc2cc(NC3CC3)n3ncc(/C=C4\NC(=O)NC4=O)c3n2)CC1 (stereo not drawn) [Example A3] | < 0.01 | > 30 | > 30 | – | IC50 (recombinant human PIM2; [6]): > 2.5 µM
NC(=O)c1cccc(-c2cc(NC3CC3)n3ncc(/C=C4\NC(=O)NC4=O)c3n2)c1 [Example U3] | < 0.01 | 3.68 | 3.74 | > 2.5 | –
CN(C)CCCOc1cccc(-c2cc(NC3CC3)n3ncc(/C=C4\NC(=O)NC4=O)c3n2)c1 [Example Z3] | < 0.01 | 2.92 | 0.284 | 2.21 | –
O=C1NC(=O)C(=Cc2cnn3c(NC4CC4)cc(-c4csc(CNC5CCCC5)c4)nc23)N1 [Compound B14] | < 0.01 | – | – | – | IC50 ([1]; read-out: AB: BxPC3): 1 µM; IC50 (MDAMB453; MDAMB453 cells, read-out: AB: MDAMB453): 1.61 µM; IC50 (recombinant human PIM2; [6]): 1.45 µM
Nc1cc(Nc2cccc(Cl)c2)nc2c(/C=C3\NC(=O)NC3=O)cnn12 [Example A1, 5-((7-amino-5-(3-chlorophenylamino)pyrazolo[1,5-a]pyrimidin-3-yl)methylene)imidazolidine-2,4-dione] | < 0.1 | 16.6 | 2.46 | 1.18 | –
O=C1NC(=S)S/C1=C\c1cnn2c(NC3CC3)cc(-c3ccnc(F)c3)nc12 | < 1 | 22.7 | > 30 | – | IC50 (recombinant human PIM2; 5 um ATP, read-out: PIM2: IC50 (5 um ATP)): 1.59 µM
O=C1NC(=O)/C(=C/c2cnn3c(NC4CC4)cc(-c4cccc(OCCCO)c4)nc23)N1 [Example B4] | < 0.01 | 7.91 | 7.87 | 2.17 | –
CN1CCC(Nc2cc(NC3CC3)n3ncc(/C=C4\NC(=O)NC4=O)c3n2)CC1 [Example V2] | < 0.01 | 1.63 | 1.48 | 1.37 | –
O=C1NC(=O)/C(=C/c2cnn3c(NCC4CC4)cc(NN4CCOCC4)nc23)N1 [Example Q2] | < 0.01 | 5.37 | 0.154 | 0.284 | –
